Measurements taken from US11400084B2 (BioTheryX, Inc., priority 2018, dated 2022).

Experiments:
IKAROS = biological target: T1, IKAROS (Homo sapiens, UniProt Q13422+Q96SW2); test: Western blot IKAROS degradation assay in MV-4-11 cells; type: cell-based; details: 6-8 hours
T1 construct: endogenous in cells; host or cells: MV-4-11
Procedure: (§1) MV-4-11 cells were grown in RPMI 1640 media supplemented with 10% fetal bovine serum, streptomycin and penicillin.
(§2) Cells were cultured at approximately 10^6 cells per mL and incubated in DMSO or the indicated compound for 6-8 hours. Whole cell extracts were prepared using RIPA buffer according to manufacturer's protocol (Pierce). Briefly, 3×10^6 cells were washed once in PBS, the cell pellets were resuspended in RIPA buffer and allowed to incubate for 15 minutes on ice. Cells debris was removed by centrifugation and the cleared whole cell lysates were transferred to new tubes for further analysis.
(§3) For Western blot analysis, whole cell protein extracts were separated on 4-12% SDS-polyacrylamide gels, transferred to nitrocellulose and probed with the indicated primary antibodies. Membranes were subsequently washed and probed with the appropriate IRDye secondary antibodies (LI-COR). The signal was detected using the Odyssey Imaging System (LI-COR).
(§4) The following antibodies were used in these studies: Anti-eRF3/GSPT1: Abcam, ab126090 (Cambridge, Mass.); Anti-Ikaros: Abcam, ab191394 (Cambridge, Mass.); Anti-CK1α: Abcam, ab108296 (Cambridge, Mass.); β-actin (8H10D10) mouse monoclonal antibody: Cell Signaling Technology, #3700 (Danvers, Mass.); IRDye 680RD Goat anti-rabbit antibody: LI-COR, 926-68071 (Lincoln, Nebr.); IRDye 800CW Goat anti-mouse antibody: LI-COR, 926-32210 (Lincoln, Nebr.).
(§5) In each of Tables 1-3, the % degradation values are reported as “A”, “B”, “C”, or “D.” “A” represents a % degradation value of less than 25% (value<25%); “B” represents a % degradation value of equal to or more than 25% and less than 50% (25%≤value<50%); “C” represents a % degradation value of equal to or more than 50% and less than 75% (50%≤value<75%); and “D” represents a % degradation value of equal to or more than 75% (value≥75%).

CK1α = biological target: T2, CK1α (Homo sapiens, UniProt P48729+Q96SW2); test: Western blot CK1α degradation assay in MV-4-11 cells; type: cell-based; details: 6-8 hours
T2 construct: endogenous in cells; host or cells: MV-4-11
Procedure: as §1, §2, §3, §4, §5

GSPT1 = biological target: T3, GSPT1 (Homo sapiens, UniProt P15170+Q96SW2); test: Western blot GSPT1 degradation assay in MV-4-11 cells; type: cell-based; details: for reduced levels of GSPT1: comparative study; for GSPT1 % Degradation at 1 μM: MV-4-11 cells, 6-8 hours
T3 construct: whole cell protein extracts were separated on 4-12% SDS-polyacrylamide gels; endogenous in cells; host or cells: MV-4-11
Procedure: as §1, §2, §3, §4, §5

MOLM-13 cells [1] = test: MOLM-13 cell viability assay (CellTiter-Glo 2, 3 days, 2500 cells/well); type: cell-based; details: Homo sapiens, MOLM-13, 72 h, percentage of DMSO control
Procedure: MOLM-13 cells were cultured in RPMI 1640 media supplemented with 10% fetal bovine serum, streptomycin and penicillin, and were plated in white walled 96-well plates at 2500 cells/well. Cells were incubated in DMSO (control) or the indicated compound for 3 days at 37° C. and 5% CO2. Following the incubation period, 100 μL of CellTiterGlow2 (CTG2) reagent (CellTiter-Glo®2 Luminescent Cell Viability Assay, Promega (Madison, Wis.)) was added to each well. Following a 10 minutes incubation with shaking, luminescence was measured using the EnVision Multimode plate reader.
The MOLM-13 cell viability values, measured as percentages of the DMSO control, are reported in Table 8 as “A”, “B”, “C”, or “D.” “A” represents a % viability value of less than 40% (value<40%). “B” represents a % viability value of equal to or more than 40% and less than 60% (40%≤value<60%). “C” represents a % viability value of equal to or more than 60% and less than 90% (60%≤value<90%). “D” represents a % viability value of equal or more than 90% (value≥90%).

MOLM-13 cells [2] = test: Comparative study cell viability, Molm-13 cells (CTG2, 3 days); type: cell-based; details: Homo sapiens, 72 h, read-out: reduced cell viability IC50
Procedure: (§6) Molm-13 and MV-4-11 cells (both leukemia cell lines) were cultured in RPMI 1640 media supplemented with 10% fetal bovine serum, streptomycin and penicillin, and were plated in white walled 96-well plates at 20,000 cells/well. THLE-2 cells (T-antigen immortalized human liver epithelial cells) were cultured using BEGM Bullet kit (Lonza CC-3170) supplemented with 10% fetal bovine serum, streptomycin and penicillin, and were plated in white walled 96-well plates 5000 cells/well. NHLF (normal human lung fibroblast) cells were cultured in DMEM media supplemented with 10% fetal bovine serum, streptomycin and penicillin, and were plated in white walled 96-well plates at 5000 cells/well. Cells were incubated in DMSO (control) or the indicated compounds for 3 days at 37° C. and 5% CO2. Following the incubation period, 100 μL of CellTiterGlow2 (CTG2) reagent (CellTiter-Glo®2 Luminescent Cell Viability Assay, Promega (Madison, Wis.)) was added to each well. Following a 10 minutes incubation with shaking, luminescence was measured using the Victor Wallac Luminometer or the Envision 2105 multimode plate reader.

MV-4-11 cells = test: Comparative study cell viability, MV-4-11 cells (CTG2, 3 days); type: cell-based; details: for IC50: Homo sapiens, MV4-11, 72 h, 3 days, read-out: reduced cell viability IC50; for IC50 concentration as fold of the IC50 concentration of Compound 1: relative to Compound 1
Procedure: as §6

THLE-2 cells = test: Comparative study cell viability, THLE-2 cells (CTG2, 3 days); type: cell-based, human; details: for IC50: Homo sapiens, 72 h, 3 days, read-out: reduced cell viability IC50; for IC50 concentration as fold of the IC50 concentration of Compound 1: relative to Compound 1
Procedure: as §6

NHLF cells = test: Comparative study cell viability, NHLF cells (CTG2, 3 days); type: cell-based; details: Homo sapiens, 72 h, read-out: reduced cell viability IC50
Procedure: as §6

PBMCs = test: Comparative study cell viability, LPS-induced PBMCs (CTG); type: cell-based; details: PBMC, LPS 18-24 hr, read-out: reduced cell viability IC50
Procedure: Frozen […] blood mononuclear cells (PBMCs) were purchased from AllCells. Cells were quick thawed, washed with RPMI-1640/10% FBS/1% Penicillin/1% Streptomycin and plated in 96 well plates at 200,000 cells/well. Cells were pretreated with DMSO or the indicated compound for 1 hr and then induced with 100 ng/mL lipopolysaccharide (LPS) for 18-24 hr. Following the incubation period, 100 μL of CTG reagent was added to each well. Plates were incubated on the shaker at RT for 2 min. Following a 10 min incubation without shaking, luminescence was measured using the Envision 2105 multimode plate reader.

IL-1β = IL-1β inhibition assay, LPS-induced PBMCs or CD14+ monocytes, Meso Scale; type: cell-based; details: 100 ng/mL LPS 18-24 h
Procedure: (§7) Either frozen primary blood mononuclear cells (PBMCs) or frozen CD14+ mobilized peripheral blood monocytes were purchased from AllCells (PB003F, Normal Peripheral Blood MNC (Alameda, Calif.)). Cells were quick thawed, washed 1-time with RPMI-1640 (10% FBS/1% Pen-Strep) and plated in 96 well plates at 200,000 cells per well. Cells were pretreated with DMSO only or with the indicated compound for 1 h and then induced with 100 ng/mL lipopolysaccharide (LPS) for 18-24 h. The supernatant was analyzed for IL-1β, IL-6, and TNFα, using Meso Scale assay according to manufacturer's protocol. The negative control wells were treated with DMSO.

TNFα = test: TNF-α inhibition assay, LPS-induced PBMCs or CD14+ monocytes, Meso Scale; type: cell-based; details: 100 ng/mL LPS 18-24 h
Procedure: as §7

IL-2 = IL-2 fold-change assay, anti-CD3 stimulated PBMCs, Mesoscale; type: cell-based; details: Homo sapiens, PBMC, 24 h, fold difference from the DMSO control
Procedure: For the IL-2 analysis, 96 well plates were precoated with 1 μg/mL anti-human CD3 antibody (OKT3, eBioscience Inc., San Diego, Calif.). After washing with PBS, the indicated compound was added (50 μL/well) followed by PBMCs diluted at 3-4 million cells/mL (150 μL/well). Plates were incubated for 24 h and the supernatants collected for Mesoscale IL-2 analysis. IL-2 activity is measured as fold difference from the DMSO control.
In Table 7, the fold-change values are reported as “A”, “B”, “C”, or “D”. “A” represents a fold-change value of equal to or less than 1 (value≤1); “B” represents a fold-change value of more than 1 and equal to or less than 2 (1<value≤2); “C” represents a fold-change value of more than 2 and equal to or less than 3 (2<value≤3); and “D” represents a fold-change value of more than 3 (value>3).

T2 sequence (P48729 whole entry): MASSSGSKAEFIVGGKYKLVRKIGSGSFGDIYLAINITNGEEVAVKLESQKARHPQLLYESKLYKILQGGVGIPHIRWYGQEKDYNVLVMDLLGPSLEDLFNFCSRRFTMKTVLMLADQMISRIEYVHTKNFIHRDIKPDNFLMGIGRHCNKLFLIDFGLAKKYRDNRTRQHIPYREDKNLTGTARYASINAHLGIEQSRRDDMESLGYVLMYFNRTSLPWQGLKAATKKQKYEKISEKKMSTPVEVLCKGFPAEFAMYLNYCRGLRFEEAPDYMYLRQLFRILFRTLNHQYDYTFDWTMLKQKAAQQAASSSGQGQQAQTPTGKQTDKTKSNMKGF
T2 sequence (Q96SW2 whole entry): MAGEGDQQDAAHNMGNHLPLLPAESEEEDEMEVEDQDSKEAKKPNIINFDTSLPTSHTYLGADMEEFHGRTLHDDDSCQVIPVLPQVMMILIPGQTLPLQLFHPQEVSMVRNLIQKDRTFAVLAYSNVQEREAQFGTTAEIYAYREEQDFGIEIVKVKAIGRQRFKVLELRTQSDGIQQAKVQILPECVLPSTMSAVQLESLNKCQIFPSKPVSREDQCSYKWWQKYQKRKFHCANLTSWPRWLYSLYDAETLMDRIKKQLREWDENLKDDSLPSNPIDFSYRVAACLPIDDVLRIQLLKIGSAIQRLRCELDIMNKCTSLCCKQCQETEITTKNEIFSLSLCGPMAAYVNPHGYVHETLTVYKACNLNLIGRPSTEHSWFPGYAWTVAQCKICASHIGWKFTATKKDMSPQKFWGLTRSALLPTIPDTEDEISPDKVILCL
T2 sequence (Q16531 whole entry partner): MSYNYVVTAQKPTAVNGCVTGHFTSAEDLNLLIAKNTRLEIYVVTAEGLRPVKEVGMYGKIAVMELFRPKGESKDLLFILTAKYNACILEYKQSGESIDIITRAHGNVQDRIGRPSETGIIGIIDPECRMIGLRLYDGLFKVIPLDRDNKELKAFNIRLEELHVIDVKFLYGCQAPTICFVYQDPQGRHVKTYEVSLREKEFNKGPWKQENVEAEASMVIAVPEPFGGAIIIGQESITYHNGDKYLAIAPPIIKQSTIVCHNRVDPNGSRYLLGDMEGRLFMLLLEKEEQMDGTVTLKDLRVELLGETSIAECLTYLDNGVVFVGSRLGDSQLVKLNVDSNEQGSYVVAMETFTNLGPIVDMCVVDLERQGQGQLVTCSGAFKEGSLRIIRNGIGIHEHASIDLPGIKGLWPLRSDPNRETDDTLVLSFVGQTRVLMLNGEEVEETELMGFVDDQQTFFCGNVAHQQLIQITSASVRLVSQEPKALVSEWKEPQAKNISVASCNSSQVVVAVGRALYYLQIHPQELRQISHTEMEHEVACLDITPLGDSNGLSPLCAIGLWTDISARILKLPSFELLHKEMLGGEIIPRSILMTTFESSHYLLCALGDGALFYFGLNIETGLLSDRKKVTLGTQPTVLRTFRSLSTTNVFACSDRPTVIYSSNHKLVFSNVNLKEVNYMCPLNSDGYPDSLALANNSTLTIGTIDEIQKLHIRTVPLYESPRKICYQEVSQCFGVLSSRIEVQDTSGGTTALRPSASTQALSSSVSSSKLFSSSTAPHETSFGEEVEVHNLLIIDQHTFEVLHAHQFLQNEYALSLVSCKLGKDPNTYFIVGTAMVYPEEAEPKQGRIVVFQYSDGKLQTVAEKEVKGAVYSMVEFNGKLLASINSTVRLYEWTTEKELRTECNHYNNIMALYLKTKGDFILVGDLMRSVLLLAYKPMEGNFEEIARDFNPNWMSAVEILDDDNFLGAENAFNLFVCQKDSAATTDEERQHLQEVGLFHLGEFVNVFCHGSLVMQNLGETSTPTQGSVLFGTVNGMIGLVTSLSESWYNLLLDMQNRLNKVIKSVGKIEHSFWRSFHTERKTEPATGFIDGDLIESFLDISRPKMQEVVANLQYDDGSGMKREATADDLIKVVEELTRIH
T3 sequence (P15170 whole entry): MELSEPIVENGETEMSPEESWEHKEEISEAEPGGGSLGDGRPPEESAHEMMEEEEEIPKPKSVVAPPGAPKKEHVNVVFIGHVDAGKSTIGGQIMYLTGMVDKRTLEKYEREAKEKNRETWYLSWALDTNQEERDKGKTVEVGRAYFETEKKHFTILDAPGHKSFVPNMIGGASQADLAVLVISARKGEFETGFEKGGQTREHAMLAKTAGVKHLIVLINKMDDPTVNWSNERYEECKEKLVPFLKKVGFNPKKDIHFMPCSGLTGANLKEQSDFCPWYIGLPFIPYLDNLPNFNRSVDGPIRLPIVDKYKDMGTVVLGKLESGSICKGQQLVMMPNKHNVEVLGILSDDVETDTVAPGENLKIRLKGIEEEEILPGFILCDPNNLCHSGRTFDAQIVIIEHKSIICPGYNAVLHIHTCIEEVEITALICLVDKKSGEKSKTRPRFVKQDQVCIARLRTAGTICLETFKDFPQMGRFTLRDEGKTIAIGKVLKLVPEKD
T3 sequence (Q96SW2 whole entry): as the sequence (Q96SW2 whole entry) above
T3 sequence (Q16531 whole entry partner): as the sequence (Q16531 whole entry partner) above
T1 sequence (Q13422 whole entry): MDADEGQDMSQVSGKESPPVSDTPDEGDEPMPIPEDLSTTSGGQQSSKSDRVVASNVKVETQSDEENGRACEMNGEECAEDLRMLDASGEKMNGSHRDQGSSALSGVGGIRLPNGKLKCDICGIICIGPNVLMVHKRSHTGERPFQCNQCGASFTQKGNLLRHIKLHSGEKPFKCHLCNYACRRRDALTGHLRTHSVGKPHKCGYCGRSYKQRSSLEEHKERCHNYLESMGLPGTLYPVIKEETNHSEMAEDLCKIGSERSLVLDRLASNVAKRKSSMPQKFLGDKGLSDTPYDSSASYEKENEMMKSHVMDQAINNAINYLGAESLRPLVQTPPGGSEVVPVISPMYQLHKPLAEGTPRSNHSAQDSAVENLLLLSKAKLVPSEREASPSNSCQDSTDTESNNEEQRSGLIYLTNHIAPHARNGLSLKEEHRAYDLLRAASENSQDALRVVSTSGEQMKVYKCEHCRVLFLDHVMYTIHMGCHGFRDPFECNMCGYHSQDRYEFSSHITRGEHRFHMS
T1 sequence (Q96SW2 whole entry): as the sequence (Q96SW2 whole entry) above
T1 sequence (Q16531 whole entry partner): as the sequence (Q16531 whole entry partner) above

SMILES	IKAROS % Degradation at 1 μM (IKAROS)	CK1α % Degradation at 1 μM (CK1α)	reduced levels of GSPT1 (GSPT1; 0.1 μM) [%]	GSPT1 % Degradation at 1 μM (GSPT1; 1 μM)	reduced levels of GSPT1 (GSPT1; 1 μM) [%]	viability at 1 µM (MOLM-13 cells [1]) [%]	IC50 (MOLM-13 cells [2]) [nM]	IC50 (MV-4-11 cells) [nM]	IC50 (THLE-2 cells) [nM]	IC50 (NHLF cells) [nM]	IC50 (PBMCs) [nM]	IC50 concentration as fold of the IC50 concentration of Compound 1 (MV-4-11 cells)	IC50 concentration as fold of the IC50 concentration of Compound 1 (THLE-2 cells)	inhibition at 1 µM (IL-1β) [%]	inhibition at 1 µM (TNFα) [%]	fold induction at 1 µM (IL-2)
Cc1ccc(NCC(=O)NCc2ccc3c(c2)CN(C2CCC(=O)NC2=O)C3=O)cc1Cl (centres unmarked) [Compound 1, 2-((3-Chloro-4-methylphenyl)amino)-N-((2-(2,6-dioxopiperidin-3-yl)-1-oxoisoindolin-5-yl)methyl)acetamide]	D (a % degradation value of equal to or more than 75% (value≥75%))	B (a % degradation value of equal to or more than 25% and less than 50% (25%≤value<50%))	92	D (a % degradation value of equal to or more than 75% (value≥75%))	93	> 90	74.8	19.6	> 10000	> 10000	> 10000	–	–	–	–	–
CC(C)(C)c1ccc(NCC(=O)NCc2ccc3c(c2)CN(C2CCC(=O)NC2=O)C3=O)cc1 (centres unmarked) [Compound 17, 2-((4-(tert-butyl)phenyl)amino)-N-((2-(2,6-dioxopiperidin-3-yl)-1-oxoisoindolin-5-yl)methyl)acetamide]	C (a % degradation value of equal to or more than 50% and less than 75% (50%≤value<75%))	C (a % degradation value of equal to or more than 50% and less than 75% (50%≤value<75%))	–	D (a % degradation value of equal to or more than 75% (value≥75%))	–	60 to 90	–	–	–	–	–	about 1 fold	about 1.5 fold	–	–	–
Cc1ccc(NCC(=O)NCc2ccc3c(c2)CN(C2CCC(=O)NC2=O)C3=O)cc1N(C)C (centres unmarked) [Compound 18, 2-((3-(dimethylamino)-4-methylphenyl)amino)-N-((2-(2,6-dioxopiperidin-3-yl)-1-oxoisoindolin-5-yl)methyl)acetamide]	–	B (a % degradation value of equal to or more than 25% and less than 50% (25%≤value<50%))	–	D (a % degradation value of equal to or more than 75% (value≥75%))	–	> 90	–	–	–	–	–	about 0.5 fold	about 1 fold	30 to 50	30 to 50	≤ 1
Cc1ccc(NC(=O)NCc2ccc3c(c2)CN(C2CCC(=O)NC2=O)C3=O)cc1Cl (centres unmarked) [Compound A, reference compound]	–	–	82	–	98	–	0.65	1.87	6.11	31.7	6	–	–	–	–	–
